Experimental data published in patent US20090194124A1, “Hair Shaping Kit and Process Comprising at Least One Non-Hydroxide Imine” (priority 2003, published 2009).

How the values were obtained:
[1] = permanent-waving of hair wound onto curlers with a simplified aqueous composition; conditions: Caucasian hair wound onto curlers
Experimental: In the permanent shaping processes described herein, the composition is applied to wet or dry hair, wound beforehand onto rollers (curlers) having a diameter of from 2 mm to 30 mm. It is also possible to apply the composition as the hair is wound up. […] This composition was applied to Caucasian hair, wound beforehand onto curlers, for 15 minutes at a temperature of 30° C. […] This composition was applied to Caucasian hair, wound beforehand onto curlers, for 25 minutes at a temperature of 30° C. […] This composition was applied to Caucasian hair, wound beforehand onto curlers, for 15 minutes at a temperature of 30° C. […] This composition was applied to Caucasian hair, wound beforehand onto curlers, for 20 minutes at a temperature of 30° C.

[2] = pH of the simplified permanent-waving composition; format: physicochemical
Experimental: […]. The pH of the composition was 13.6. This composition was applied to Caucasian hair, wound beforehand onto curlers, for 15 minutes at a temperature of 30° C.
[…]. The pH of the composition was 13.5. This composition was applied to Caucasian hair, wound beforehand onto curlers, for 25 minutes at a temperature of 30° C.
(§1) A simplified permanent-waving composition was prepared, containing, as a permanent-waving active agent, 1,3,4,6,7,8-hexahydro-2H-pyrimido[1,2-a]pyrimidine (Registry Number [5807-14-7]) at a concentration of 0.7 M in water. The pH of the composition was 13.5. This composition was applied to Caucasian hair, wound beforehand onto curlers, for 15 minutes at a temperature of 30° C.
as §1, with “0.5M” for “0.7 M”, “13.4.” for “13.5.”, “20” for “15”

Row | Compound | result on the hair after permanent-waving (curl and feel) ([1]; 0.5M in water, applied 20 minutes at 30° C.) | result on the hair after permanent-waving (curl and feel) ([1]; 0.7 M in water, applied 15 minutes at 30° C.) | pH of the composition ([2]; 0.5M in water) | pH of the composition ([2]; 0.7 M in water)
1 | C1CN=C2NCCCN2C1 [1,3,4,6,7,8-hexahydro-2H-pyrimido[1,2-a]pyrimidine] | beautifully curly and felt soft | beautifully curly and felt soft | 13.4 | 13.5
2 | CN(C)C(=N)NC(=N)N [1,1-dimethylbiguanide] |  |  | 13.5 | 13.6
